Results: PMC12583703 (Nature Communications, 2025)

How the values were obtained:
SLC38A2 = target: T1, SLC38A2 (Homo sapiens, UniProt Q96QD8); test: thermal shift assay
T1 sequence (Q96QD8 1-506): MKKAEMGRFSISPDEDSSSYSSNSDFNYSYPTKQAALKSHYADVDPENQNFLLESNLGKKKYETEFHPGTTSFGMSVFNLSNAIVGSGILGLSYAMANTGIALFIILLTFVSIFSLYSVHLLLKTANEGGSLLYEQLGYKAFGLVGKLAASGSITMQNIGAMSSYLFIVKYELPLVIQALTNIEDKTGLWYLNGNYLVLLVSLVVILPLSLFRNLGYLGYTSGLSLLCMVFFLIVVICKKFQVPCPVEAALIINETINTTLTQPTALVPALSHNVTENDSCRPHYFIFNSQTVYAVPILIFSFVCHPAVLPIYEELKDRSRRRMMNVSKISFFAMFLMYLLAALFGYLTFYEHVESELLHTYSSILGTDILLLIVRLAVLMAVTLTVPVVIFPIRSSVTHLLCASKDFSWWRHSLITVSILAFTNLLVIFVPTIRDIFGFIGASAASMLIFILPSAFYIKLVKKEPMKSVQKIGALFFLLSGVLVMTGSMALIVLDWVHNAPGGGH

SLC1A5 = target: T2, SLC1A5 (Homo sapiens, UniProt Q15758); test: thermal shift assay
T2 sequence (Q15758 1-541): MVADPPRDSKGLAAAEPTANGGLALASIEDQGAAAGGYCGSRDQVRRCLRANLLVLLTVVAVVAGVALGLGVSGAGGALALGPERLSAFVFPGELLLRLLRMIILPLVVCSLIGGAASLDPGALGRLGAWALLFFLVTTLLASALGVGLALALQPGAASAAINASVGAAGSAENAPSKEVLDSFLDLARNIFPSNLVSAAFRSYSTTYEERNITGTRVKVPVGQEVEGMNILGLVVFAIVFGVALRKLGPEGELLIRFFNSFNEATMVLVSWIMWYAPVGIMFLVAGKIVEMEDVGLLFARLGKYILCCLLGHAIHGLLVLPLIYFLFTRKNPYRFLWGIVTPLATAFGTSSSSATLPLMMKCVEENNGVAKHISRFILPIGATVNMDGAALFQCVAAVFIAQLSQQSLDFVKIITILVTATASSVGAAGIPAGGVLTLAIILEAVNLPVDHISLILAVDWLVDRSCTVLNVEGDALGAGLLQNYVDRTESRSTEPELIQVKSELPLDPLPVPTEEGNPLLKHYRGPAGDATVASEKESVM

Cc1cccc(COc2ccccc2CN(CC[C@H](N)C(=O)O)Cc2ccccc2OCc2cccc(C)c2)c1 [V-9302]
Tm (SLC38A2): V-9302 significantly altered the Tm values of SLC1A5, SLC38A2, SLC6A19, and ANO1
Tm (SLC1A5): V-9302 significantly altered the Tm values of SLC1A5, SLC38A2, SLC6A19, and ANO1
